Measured values from PubChem BioAssay AID1996.
In brackets after ≈: the same amount, converted by molar mass.

Settings: buffer; pH 7.4; 200.0 µM

Row | Structure (SMILES) | solubility kinetic [µg/mL]
1 | COn1c(-c2ccc(Cl)cc2)nc2ncccc21 | > 39
2 | O=C(CSc1cccc[n+]1[O-])C12CC3CC(CC(C3)C1)C2 | > 45.5
3 | CSc1nc(NCC(C)O)c2c3c(sc2n1)CN(C)CC3 (stereo not given) | 44.7 (≈ 138 µM)
4 | Cc1ccc(S(=O)(=O)N2CCN(c3ccc([N+](=O)[O-])cn3)CC2)cc1 | < 0.2
5 | O=C(NC1CCCCC1)c1ccc(-c2ccc(Cl)cc2)o1 | < 0.7
6 | Cc1ccc(-c2nc3ccccc3nc2-c2ccccc2)cc1 | 1 (≈ 3.37 µM)
7 | Cc1ccc(S(=O)(=O)N2CCC[C@H]2C(=O)OCc2cc(=O)oc3cc(C)ccc23)cc1 | 7.3 (≈ 16.5 µM)
8 | Cc1ccc(Cl)cc1NS(=O)(=O)N1CCOCC1 | > 43.6
9 | Cn1c(N)c(Sc2ccccc2[N+](=O)[O-])c(=O)n(C)c1=O | 41.5 (≈ 135 µM)
10 | Cc1ccc2nc(-c3ccccc3NC(=O)CCC(=O)O)c(=O)[nH]c2c1 | > 52.7
11 | O=c1c2ccccc2nc(/C=C/c2ccccc2O)n1-c1ccccc1O | 30.8 (≈ 86.4 µM)
12 | CC(NC(=O)Cn1cccc1)c1ccccc1 (stereo not given) | > 34.2
13 | Cc1cccc(S(=O)(=O)Nc2nc3ccccc3nc2OC(C)C)c1 | 3.1 (≈ 8.67 µM)
14 | CCCC1C(=O)N(Cc2ccccc2)C(=O)CC1C (stereo not given) | 31.1 (≈ 120 µM)
15 | CCNC(=O)C(=O)c1c(-c2ccccc2)[nH]c2ccccc12 | > 43.9
16 | O=C(c1ccc(C(F)(F)F)cc1)C1CCCN(C(=O)c2cnccn2)C1 (stereo not given) | 45.6 (≈ 126 µM)
17 | Cc1cc2oc(=O)cc(CN(C)Cc3cccc(F)c3)c2cc1C | 1.2 (≈ 3.69 µM)
18 | CC(=O)c1ccc(C(=O)N2CCCC(Nc3ccccc3)C2)s1 (stereo not given) | 41.2 (≈ 125 µM)
19 | COc1ccc(Cl)cc1C(=O)NC1=NCCS1 | 38.6 (≈ 143 µM)
20 | CSCc1cc(N(C)c2ccccc2)nc(-c2ccccn2)n1 | 42.8 (≈ 133 µM)

Row | Structure (SMILES) | solubility kinetic [µg/mL]
21 | CCCn1c(S(=O)(=O)O)nc2ccccc21 | > 36
22 | O=C(Cc1cccc2ccccc12)Nc1ccccc1 | 1.9 (≈ 7.27 µM)
23 | O=C(c1ccc(NC(=S)NCc2ccco2)cc1)N1CCOCC1 | 41.6 (≈ 120 µM)
24 | CNC(=O)c1cc(S(=O)(=O)Nc2ccc3c(c2)OCCO3)ccc1C | > 54.4
25 | COc1cc2ccccc2cc1C(=O)Nc1ccncc1 | 38.6 (≈ 139 µM)
26 | CC1Sc2ccc(C(=O)NCc3ccccn3)cc2NC1=O (stereo not given) | 45.6 (≈ 146 µM)
27 | Fc1ccc(CNc2ncnc3cc(Cl)ccc23)cc1 | 3.5 (≈ 12.2 µM)
28 | O=C1C=C(N2CCCCCC2)C(=O)N1c1ccc(Cl)cc1 | 8.9 (≈ 29.2 µM)
29 | CCOC(=O)COc1ccc2c(c1)c(C(C)=O)c(C)n2-c1ccccc1 | < 0.8
30 | CCSC1=NCCN1C(=O)C(C)(C)Oc1ccc(Cl)cc1 | 9.8 (≈ 30 µM)
31 | CCN(CC)S(=O)(=O)c1ccc(NC(=O)c2cnccn2)cc1 | 7.8 (≈ 23.3 µM)
32 | CCOc1ccc(C(NC(=O)CC)c2c(O)ccc3ccccc23)cc1 (stereo not given) | 2 (≈ 5.72 µM)
33 | COC(=O)c1ccc(C(=O)NC2CCSc3ccccc32)cc1 (stereo not given) | 4 (≈ 12.2 µM)
34 | CCOC(=O)C1CCCN(C(=S)NC2CCCCC2)C1 (stereo not given) | > 44.8
35 | O=C(Nc1nc2c(Cl)cccc2s1)C1CC1 | 1.3 (≈ 5.14 µM)
36 | COc1cccc(CNC(=O)COC(=O)/C=C/c2ccc(SC)cc2)c1 | 3.8 (≈ 10.2 µM)
37 | COc1cc(C(=O)NC2CCCCCCC2)cc(OC)c1OC | < 0.7
38 | CN(C)/C=C1\Cc2ccccc2C1=O | > 28.1
39 | O=C1OC2(O)C3C4C=CC(C4)C3C(=O)N2c2ccccc21 (stereo not given) | > 42.5
40 | Cc1ccsc1C(=O)OCC(=O)NC1CC1 | > 35.9

Row | Structure (SMILES) | solubility kinetic [µg/mL]
41 | CC(NC(=O)c1cc(-c2ccccc2)nc2ccccc12)C1CCCO1 (stereo not given) | > 52
42 | COc1cc(CCN)ccc1O.Cl | > 30.6
43 | CCCC(C)NC(=O)c1ccccc1SC (stereo not given) | 34.1 (≈ 144 µM)
44 | CC(=O)Nc1cccc(C(=O)OCC(=O)c2ccccc2Cl)c1 | 43 (≈ 130 µM)
45 | CN(CC(=O)Nc1cccc(F)c1)C(=O)CC1CC2CCC1C2 (stereo not given) | 4 (≈ 12.6 µM)
46 | Cc1cccc(C2NC(=O)c3ccccc3O2)c1 (stereo not given) | 24.3 (≈ 102 µM)
47 | Cc1nc(C)c(C(=O)OCC(=O)NCc2ccccc2Cl)s1 | 26.4 (≈ 77.9 µM)
48 | O=S(=O)(c1ccccc1C(F)(F)F)N1CCN(c2ncnc3sccc23)CC1 | 4.6 (≈ 10.7 µM)
49 | O=C(c1csc(Nc2cccc3ccccc23)n1)N1CCCC1 | 13.1 (≈ 40.5 µM)
50 | CCOc1ccc(C(=O)NCC(c2cccs2)N2CCOCC2)cc1 (stereo not given) | > 54.1
51 | Cc1cc(-c2csc3nc[nH]c(=S)c23)cc(C)c1C | 3.1 (≈ 10.8 µM)
52 | COC(=O)c1ccc(NC(=O)C(=O)c2cccn2C)cc1 | 3.2 (≈ 11.2 µM)
53 | Cc1ccc2[nH]c(=S)n(-c3cccnc3)c(=O)c2c1 | 2.8 (≈ 10.4 µM)
54 | O=C(CN1C(=O)S/C(=C\c2cc(Cl)c(O)c(Cl)c2)C1=O)Nc1ccccc1 | 3.6 (≈ 8.51 µM)
55 | O=C(Cc1ccc(Cl)cc1)Nc1ccc(Cl)cn1 | 3.1 (≈ 11 µM)
56 | O=C(COC(=O)c1ccc2c(c1)OCCO2)NCCc1ccc(F)cc1 | 5.3 (≈ 14.7 µM)
57 | N/C(=N\c1nc2ccccc2o1)NC(=O)c1cccc(Cl)c1 | < 0.2
58 | Cc1cccc(-n2c(O)c(C=NCCN3CCCCC3)c(=O)[nH]c2=O)c1 | > 53.5
59 | Cc1cc(OCC(=O)Nc2ccncc2)ccc1[N+](=O)[O-] | 35.8 (≈ 125 µM)
60 | CCOC(=O)N1CCC(NC(=O)c2ccc(Cl)cc2)CC1 | > 46.6
